# In patent EP1734039A1, “Aryl urea compounds as BETA-secretase inhibitors” (Esbatech AG, priority 2005, dated 2006):
# Legend:
# [1] = system: Aβ1-40 secretion; experiment: Aβ1-40 (Sw) bioassay (cell-based, ELISA); details: for IC50: Homo sapiens, concentration that reduces Aβ1-40 secretion to 50 %, supernatant of Swedish APP695 transgenic HEK293 cells
# From the text: (§1) The tests performed were a) Aβ1-40 (Sw) bioassay, which measures the amount of the amyoid peptide Aβ1-40 in the supernatant of Swedish APP695 transgenic HEK293 cells in the presence of the various BACE inhibitors via ELISA (enzyme-linked immunosorbent assay). […] A SEAP-APP(Sw)695 fusion protein is transiently expressed in HEK293 cells in the presence of the various BACE inhibitors. Secretion of the SEAP moiety upon cleavage at the APP β-site is quantitated via a luminescence readout. […] The compounds were docked with the FFLD approach (Budin et al., Biol. Chem. 382, 1365-1372, 2001) and their binding energy was evaluated with the LIECE method (Huang and Caflisch, J. Med. Chem. 47, 5791-5797, 2004). The affinity evaluated with LIECE is in the low micromolar range for most of these compounds.
# [2] = system: SEAP-APP(Sw)695 fusion protein; experiment: SEAP bioassay (cell-based, luminescence readout); details: transiently transfected HEK293 cells; for IC50: Homo sapiens, concentration that reduces secreted SEAP activity to 50 %
# From the text: as §1
# [3] = target: recombinant BACE enzyme (Homo sapiens, UniProt P56817); experiment: FRET assay (in vitro); format: biochemical; details: for IC50: concentration that reduces the activity of BACE to 50 %
# Chain of recombinant BACE enzyme (P56817 46-501): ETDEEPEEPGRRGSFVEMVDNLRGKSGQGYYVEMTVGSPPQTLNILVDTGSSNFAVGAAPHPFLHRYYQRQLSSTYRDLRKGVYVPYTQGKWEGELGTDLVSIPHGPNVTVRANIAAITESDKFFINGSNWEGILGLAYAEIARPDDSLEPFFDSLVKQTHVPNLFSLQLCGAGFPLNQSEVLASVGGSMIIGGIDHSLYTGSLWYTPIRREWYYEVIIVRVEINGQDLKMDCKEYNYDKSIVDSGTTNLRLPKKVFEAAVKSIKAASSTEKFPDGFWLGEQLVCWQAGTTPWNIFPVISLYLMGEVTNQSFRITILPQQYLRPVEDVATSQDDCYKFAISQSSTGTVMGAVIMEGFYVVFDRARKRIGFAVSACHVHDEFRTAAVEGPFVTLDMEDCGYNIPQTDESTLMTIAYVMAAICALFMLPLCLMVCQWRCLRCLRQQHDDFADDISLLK
smiles,measurement,setting,value
CN(C)c1ccc(NC(=O)Nc2cc(C(F)(F)F)cc(C(F)(F)F)c2)cc1C(=O)NCCCN1CCOCC1 [Compound A1],IC50,[1],3 µM
same,IC50,[2],3.5 µM
COCCCNC(=O)c1cc(NC(=O)Nc2cc(C(F)(F)F)cc(C(F)(F)F)c2)ccc1N(C)C [Compound A2],IC50,[1],3.2 µM
same,% reduction of secreted SEAP activity,[2]; at 3 µM,27 (3 µM) %
same,IC50,[3],284 µM
CCOCCCNC(=O)c1cc(NC(=O)Nc2cccc(Cl)c2)ccc1N(C)C [Compound A3],IC50,[1],2.6 µM
same,% reduction of secreted SEAP activity,[2]; at 3 µM,23 (3 µM) %
COCCCNC(=O)c1cc(NC(=O)Nc2cccc(OC)c2)ccc1N(C)C [Compound A4],IC50,[1],7.5 µM
same,% reduction of secreted SEAP activity,[2]; at 6 µM,21 (6 µM) %
same,% reduction of the activity of BACE,[3]; at 100 µM,33 (100 µM) %
CCCNC(=O)c1cc(NC(=O)Nc2cccc(OC)c2)ccc1N(C)C [Compound A5],IC50,[1],14.3 µM
same,% reduction of secreted SEAP activity,[2]; at 6 µM,0 (6 µM) %
same,% reduction of the activity of BACE,[3]; at 100 µM,16 (100 µM) %
Cc1ccc(NC(=O)Nc2ccc(N(C)C)c(C(=O)NCCCN3CCOCC3)c2)cc1C [Compound A6],IC50,[1],23 µM
same,% reduction of secreted SEAP activity,[2]; at 12.5 µM,19 (12.5 µM) %
same,% reduction of the activity of BACE,[3]; at 100 µM,21 (100 µM) %
COCCNC(=O)c1cc(NC(=O)Nc2cccc(C)c2)ccc1N(C)C [Compound A7],IC50,[1],12.9 µM
same,% reduction of secreted SEAP activity,[2]; at 12.5 µM,0 (12.5 µM) %
same,% reduction of the activity of BACE,[3]; at 100 µM,0 (100 µM) %
Cc1cccc(NC(=O)Nc2ccc(N(C)C)c(C(=O)NCCc3ccccc3)c2)c1 [Compound A8],IC50,[1],5.6 µM
same,% reduction of secreted SEAP activity,[2]; at 3 µM,14 (3 µM) %
same,% reduction of the activity of BACE,[3]; at 100 µM,35 (100 µM) %
COCCCNC(=O)c1cc(NC(=O)Nc2ccc(Cl)c(Cl)c2)ccc1N(C)C [Compound A9],IC50,[1],5.9 µM
same,% reduction of secreted SEAP activity,[2]; at 3 µM,17 (3 µM) %
same,IC50,[3],46 µM
COc1cc(NC(=O)Nc2ccc(N(C)C)c(C(=O)NCc3ccc(F)cc3)c2)cc(OC)c1 [Compound A10],IC50,[1],3.1 µM
same,% reduction of secreted SEAP activity,[2]; at 1.6 µM,10 (1.6 µM) %
same,IC50,[3],64 µM
CCCNC(=O)c1cc(NC(=O)Nc2ccc(CC)cc2)ccc1N(C)C [Compound A11],IC50,[1],5.2 µM
same,% reduction of secreted SEAP activity,[2]; at 6 µM,0 (6 µM) %
same,% reduction of the activity of BACE,[3]; at 200 µM,20 (200 µM) %
CN(C)c1ccc(NC(=O)Nc2cc(C(F)(F)F)cc(C(F)(F)F)c2)cc1C(=O)NCc1ccc(F)cc1 [Compound A12],IC50,[1],4.2 µM
same,% reduction of secreted SEAP activity,[2]; at 1.6 µM,14 (1.6 µM) %
same,IC50,[3],131 µM
COCCCNC(=O)c1cc(NC(=O)Nc2cccc(Br)c2)ccc1N(C)C [Compound A13],IC50,[1],3.8 µM
same,% reduction of secreted SEAP activity,[2]; at 3 µM,25 (3 µM) %
same,% reduction of the activity of BACE,[3]; at 100 µM,37 (100 µM) %
CCOCCCNC(=O)c1cc(NC(=O)Nc2ccccc2Br)ccc1N(C)C [Compound A14],IC50,[1],7.8 µM
same,% reduction of secreted SEAP activity,[2]; at 6 µM,0 (6 µM) %
same,% reduction of the activity of BACE,[3]; at 100 µM,0 (100 µM) %
Cc1cc(C)cc(NC(=O)NCc2nnc(SCc3ccccc3)n2C)c1 [Compound B1],IC50,[1],18 µM
same,% reduction of secreted SEAP activity,[2]; at 50 µM,0 (50 µM) %
same,% reduction of the activity of BACE,[3]; at 500 µM,0 (500 µM) %
CSc1nnc(CCNC(=O)Nc2ccc(Cl)c(C(F)(F)F)c2)n1C(C)C [Compound B2],IC50,[1],40 µM
same,% reduction of secreted SEAP activity,[2]; at 12.5 µM,0 (12.5 µM) %
same,% reduction of the activity of BACE,[3]; at 250 µM,0 (250 µM) %
CCSc1nsc(NC(=O)Nc2cccc(C(C)=O)c2)n1 [Compound B3],IC50,[1],1.6 µM
same,IC50,[2],10 µM
COc1cccc(NC(=O)Nc2nnc(C(C)Oc3ccccc3)s2)c1 (stereo not drawn) [Compound B4],IC50,[1],13 µM
same,% reduction of secreted SEAP activity,[2]; at 12.5 µM,0 (12.5 µM) %
same,% reduction of the activity of BACE,[3]; at 500 µM,0 (500 µM) %
Cc1cccc(NC(=O)NCC2CCN(c3ccc(S(=O)(=O)N4CCOCC4)cc3)CC2)c1 [Compound C3],IC50,[1],22 µM
same,% reduction of secreted SEAP activity,[2]; at 12.5 µM,0 (12.5 µM) %
same,% reduction of the activity of BACE,[3]; at 50 µM,0 (50 µM) %
CN(C)c1nc(OCCNC(=O)Nc2ccccc2)nc(N2CCCCC2)n1 [Compound C4],% reduction of Aβ1-40 secretion,"[1]; at 12.5 µM, Swedish APP695 transgenic HEK293 cells",31 (12.5 µM) %
same,% reduction of secreted SEAP activity,[2]; at 12.5 µM,0 (12.5 µM) %
same,% reduction of the activity of BACE,[3]; at 500 µM,0 (500 µM) %
CCNc1nc(NC(C)(C)C)nc(OCCNC(=O)Nc2ccccc2)n1 [Compound C5],IC50,[1],10 to 20 µM
same,% reduction of secreted SEAP activity,[2]; at 25 µM,0 (25 µM) %
same,% reduction of the activity of BACE,[3]; at 500 µM,0 (500 µM) %
